Data reported in PubChem BioAssay AID248 (DTP/NCI, 2004).
“And” between values parts separate entries of the source, which are not always exact repeats. Identical values can stand only once. Inconclusive results and toxic doses are left out. No stated cut-off is given here; in the data, active means T/C of 150% or more; inactive means T/C below 125%.

System: L1210 leukemia ip in BDF1 mice, survival T/C
Experiment: NCI In Vivo Anticancer Drug Screen. Data for tumor model L1210 Leukemia (intraperitoneal) in B6D2F1 (BDF1) mice
Settings: endpoint: mean survival time, higher = longer survival
Outline: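 Mice bearing the transplanted tumor received compound or vehicle. Survival of the treated group was divided by that of the vehicle-treated control group to give the ratio.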

[1] = dose: 100.0 mg/kg/injection, schedule: Q01DX009 (ip), vehicle: Klucel (hydroxypropylcellulose) (HPC)
[2] = dose: 100.0 mg/kg/injection, schedule: Q04DX003 (ip), vehicle: Klucel (hydroxypropylcellulose) (HPC)
[3] = dose: 200.0 mg/kg/injection, schedule: Q01DX009 (ip), vehicle: Klucel (hydroxypropylcellulose) (HPC)
[4] = dose: 200.0 mg/kg/injection, schedule: Q04DX003 (ip), vehicle: Klucel (hydroxypropylcellulose) (HPC)
[5] = dose: 400.0 mg/kg/injection, schedule: Q01DX009 (ip), vehicle: Klucel (hydroxypropylcellulose) (HPC)
[6] = dose: 400.0 mg/kg/injection, schedule: Q04DX003 (ip), vehicle: Klucel (hydroxypropylcellulose) (HPC)
[7] = dose: 100.0 mg/kg/injection, schedule: Q04DX003 (ip), vehicle: saline with Tween-80
[8] = dose: 200.0 mg/kg/injection, schedule: Q04DX003 (ip), vehicle: saline with Tween-80
[9] = dose: 400.0 mg/kg/injection, schedule: Q04DX003 (ip), vehicle: saline with Tween-80
[10] = dose: 50.0 mg/kg/injection, schedule: Q01DX001 (ip), vehicle: saline
[11] = dose: 100.0 mg/kg/injection, schedule: Q01DX001 (ip), vehicle: saline
[12] = dose: 200.0 mg/kg/injection, schedule: Q01DX001 (ip), vehicle: saline
[13] = dose: 400.0 mg/kg/injection, schedule: Q01DX001 (ip), vehicle: saline
[14] = dose: 100.0 mg/kg/injection, schedule: Q01DX001 (ip), vehicle: saline with Tween-80
[15] = dose: 200.0 mg/kg/injection, schedule: Q01DX001 (ip), vehicle: saline with Tween-80
[16] = dose: 400.0 mg/kg/injection, schedule: Q01DX001 (ip), vehicle: saline with Tween-80
[17] = dose: 100.0 mg/kg/injection, schedule: Q01DX001 (ip), vehicle: Klucel (hydroxypropylcellulose) (HPC)
[18] = dose: 200.0 mg/kg/injection, schedule: Q01DX001 (ip), vehicle: Klucel (hydroxypropylcellulose) (HPC)

Measured: T/C

c1ccc(N=Nc2ccnnc2)cc1
inactive: dose: 50.0 mg/kg/injection, schedule: Q04DX002 (ip), vehicle: saline with Tween-80 102 % of control | dose: 100.0 mg/kg/injection, schedule: Q04DX002 (ip), vehicle: saline with Tween-80 91 % of control | dose: 200.0 mg/kg/injection, schedule: Q04DX002 (ip), vehicle: saline with Tween-80 105 % of control

CNC(=O)OCC(Cl)(Cl)Cl
inactive: [1] 97 % of control | [2] 96 % of control | [3] 98 % of control | [4] 100 % of control | [5] 95 % of control | [6] 100 % of control

CCCCCCc1cc[n+](C(=O)c2ccc([N+](=O)[O-])cc2)cc1
inactive: [7] 102 % of control | [8] 104 % of control | [9] 94 % of control

CCSC1OC(C(COC(C)=O)OC(C)=O)C(OC(C)=O)C1NC(=O)OCc1ccccc1 (configuration not stated)
inactive: [10] 100 % of control | [11] 97 % of control | [12] 97 % of control | [13] 91 % of control

Cc1ccc(OC(=O)/C=C/C(=O)Oc2ccc(C)cc2)cc1
inactive: [1] 97 % of control | [2] 105 % of control | [3] 95 % of control | [4] 98 % of control | [5] 88 % of control | [6] 108 % of control

NC(N)=N/N=C/c1cc(Cl)ccc1O
inactive: dose: 12.5 mg/kg/injection, schedule: Q04DX002 (ip), vehicle: Klucel (hydroxypropylcellulose) (HPC) 93 % of control | dose: 25.0 mg/kg/injection, schedule: Q04DX002 (ip), vehicle: Klucel (hydroxypropylcellulose) (HPC) 93 % of control and 110 % of control | dose: 100.0 mg/kg/injection, schedule: Q04DX002 (ip), vehicle: Klucel (hydroxypropylcellulose) (HPC) 106 % of control

CSc1nc([N+](C)(C)C)cc([N+](C)(C)C)n1
inactive: dose: 6.0 mg/kg/injection, schedule: Q01DX Z (ip), vehicle: saline 91 % of control

CC1OC(=O)NC1C(=O)O (configuration not stated)
inactive: [11] 120 % of control | dose: 100.0 mg/kg/injection, schedule: Q01DX009 (ip), vehicle: saline 91 % of control | [7] 106 % of control | [12] 98 % of control | dose: 200.0 mg/kg/injection, schedule: Q01DX009 (ip), vehicle: saline 101 % of control | [8] 103 % of control | [13] 101 % of control | dose: 400.0 mg/kg/injection, schedule: Q01DX009 (ip), vehicle: saline 89 % of control | [9] 95 % of control

C=CC(=O)Nc1cccc(OC(=O)NC)c1
inactive: [14] 99 % of control | [15] 100 % of control | [16] 92 % of control

CN(C)C(=S)Oc1ccccc1C1(C)OCCO1
inactive: [14] 97 % of control | [15] 98 % of control | [16] 96 % of control

COC(=O)C12c3ccccc3C(c3ccccc31)c1c(N=O)ccc(NO)c12
inactive: dose: 25.0 mg/kg/injection, schedule: Q04DX003 (ip), vehicle: Klucel (hydroxypropylcellulose) (HPC) 100 % of control | dose: 50.0 mg/kg/injection, schedule: Q04DX003 (ip), vehicle: Klucel (hydroxypropylcellulose) (HPC) 97 % of control | [17] 99 % of control | [2] 94 % of control | [18] 90 % of control | [4] 102 % of control | dose: 400.0 mg/kg/injection, schedule: Q01DX001 (ip), vehicle: Klucel (hydroxypropylcellulose) (HPC) 89 % of control | [6] 105 % of control

O=C(O)/C(=C\c1ccccc1)c1ccccc1
inactive: [7] 100 % of control | [8] 94 % of control | [9] 100 % of control

CN=C(NC)c1ccc(NC(=O)c2cc(C)cc(C(=O)Nc3ccc(C(=NC)NC)cc3)c2)cc1
inactive: dose: 1.88 mg/kg/injection, schedule: Q01DX Z (ip), vehicle: saline 89 % of control | dose: 3.75 mg/kg/injection, schedule: Q01DX Z (ip), vehicle: saline 91 % of control | dose: 7.5 mg/kg/injection, schedule: Q01DX Z (ip), vehicle: saline 91 % of control | dose: 15.0 mg/kg/injection, schedule: Q01DX Z (ip), vehicle: saline 98 % of control and 107 % of control | dose: 30.0 mg/kg/injection, schedule: Q01DX Z (ip), vehicle: saline 101 % of control

CC(=O)Nc1ncc([N+](=O)[O-])s1
inactive: dose: 50.0 mg/kg/injection, schedule: Q01DX009 (ip), vehicle: saline with Tween-80 97 % of control | dose: 100.0 mg/kg/injection, schedule: Q01DX009 (ip), vehicle: saline with Tween-80 98 % of control | dose: 200.0 mg/kg/injection, schedule: Q01DX009 (ip), vehicle: saline with Tween-80 104 % of control

BrC1C(Br)C(Br)C2OC2C1Br (configuration not stated)
inactive: [1] 96 % of control | [3] 102 % of control | [5] 98 % of control

CC1=NN(c2ccc([N+](=O)[O-])cc2)C(=O)C1[N+](=O)[O-] (configuration not stated) (tested in a mixture with another compound)
inactive: dose: 75.0 mg/kg/injection, schedule: Q01DX001 (ip), vehicle: carboxymethylcellulose (CMC) 101 % of control | dose: 150.0 mg/kg/injection, schedule: Q01DX001 (ip), vehicle: carboxymethylcellulose (CMC) 95 % of control | dose: 300.0 mg/kg/injection, schedule: Q01DX001 (ip), vehicle: carboxymethylcellulose (CMC) 110 % of control

C=C(C)C(=O)O[C@@H]1C[C@@]2(C)O[C@@H]2C[C@H](O)/C(C)=C/[C@H]2OC(=O)C(=C)[C@@H]21
inactive: dose: 25.0 mg/kg/injection, schedule: Q01DX001 (ip), vehicle: saline 91 % of control | [10] 96 % of control | [11] 112 % of control

CCC1=C(c2cc(Cl)c3ccccc3c2OCC(=O)O)OC(CC)(C(=O)c2cc(Cl)c3ccccc3c2OCC(=O)O)CC1 (configuration not stated)
inactive: dose: 30.0 mg/kg/injection, schedule: Q01DX009 (ip), vehicle: saline with Tween-80 96 % of control | dose: 31.0 mg/kg/injection, schedule: Q01DX Z (ip), vehicle: other 92 % of control | dose: 60.0 mg/kg/injection, schedule: Q01DX009 (ip), vehicle: saline with Tween-80 94 % of control | dose: 62.0 mg/kg/injection, schedule: Q01DX Z (ip), vehicle: other 95 % of control | [7] 103 % of control | dose: 120.0 mg/kg/injection, schedule: Q01DX009 (ip), vehicle: saline with Tween-80 92 % of control | [8] 93 % of control | dose: 240.0 mg/kg/injection, schedule: Q01DX009 (ip), vehicle: saline with Tween-80 92 % of control

CCCCCCCCCCCSc1ccc2ccccc2c1
inactive: [17] 95 % of control | [18] 90 % of control

CCC(=O)CC(C)(C)C
inactive: [11] 92 % of control | [12] 97 % of control | [13] 100 % of control
